Test results from US10519177B2, “Heterocyclic compounds and uses thereof” (Plexxikon Inc., priority 2013, dated 2019).
Read-outs that look alike come from different tables or passages of the source.

Assays:
bromodomain = assay: at least one of the bromodomain cell assays of Example 57; assay type: cell-based; settings: at least one of the bromodomain cell assays described in Example 57; read-out: IC50 in at least one of the bromodomain cell assays
BRD4-BD12 (1-477) = BRD4-BD12 (1-477) (Homo sapiens (Human), UniProt O60885); assay: Alphascreen binding assay BRD4-BD12; settings: BRD4(1 2) H4; read-out: Biochemical activity (IC50 μM) BRD4(1 2) H4
Procedure, shortened: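 First, compound was preincubated 1 h at room temperature with the His-tagged BRD4 protein (BD1 44-164 or tandem BD12 1-477) and acetylated H4 peptide. Next, donor and acceptor beads were added at 7.5 μg/ml final. After 30 min, AlphaScreen emission was recorded.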

MV-4-11 cells = assay: Oncology cell growth assay MV-4-11 (CellTiter Glo); assay type: cell-based; settings: Homo sapiens, MV4-11, 72 h, read-out: Cell activity (IC50 μM) MV-4-11 3d-Growth
Procedure, shortened: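 MV-4-11 AML cells (MLL-AF4), 3000 per well, exposed to 8-point 1:3 compound titration from 10 μM top concentration (0.2% DMSO) for 72 h. Viability by CellTiter Glo luminescence, normalized to DMSO controls; pIC50 from four-parameter curve fit.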

| Structure (SMILES) | IC50 (bromodomain) [nM] | IC50 (BRD4-BD12 (1-477)) [µM] | IC50 (MV-4-11 cells) [µM] | IC50 (MV-4-11 cells; MV-4-11, 3d growth) [µM] |
| --- | --- | --- | --- | --- |
| [2H]C([2H])(C1CC(F)(F)C1)n1cc(-c2cnn(C(F)F)c2)c2ncc(-c3c(C)noc3C)cc21 [P-0256, 4-[1-[dideuterio-(3,3-difluorocyclobutyl)methyl]-3-[1-(difluoromethyl)pyrazol-4-yl]pyrrolo[3,2-b]pyridin-6-yl]-3,5-dimethyl-isoxazole] | < 10000 | < 1 | < 1 | – |
| [2H]C([2H])(C1CCC(F)(F)CC1)n1cc(-c2cnc(C3CC3)nc2)c2ncc(-c3c(C)noc3C)cc21 [P-0349, 4-[3-(2-cyclopropylpyrimidin-5-yl)-1-[dideuterio-(4,4-difluorocyclohexyl)methyl)pyrrolo[3,2-b]pyridin-6-yl]-3,5-dimethyl-isoxazole] | < 10000 | < 1 | < 1 | – |
| [2H]C([2H])(C1CC(F)(F)C1)n1cc(-c2cnc(C3CC3)nc2)c2ncc(-c3c(C)noc3C)cc21 [P-0259, 4-[3-(2-cyclopropylpyrimidin-5-yl)-1-[dideuterio-(3,3-difluorocyclobutyl)methyl]pyrrolo[3,2-b]pyridin-6-yl]-3,5-dimethyl-isoxazole] | < 10000 | < 1 | < 1 | – |
| Cc1noc(C)c1-c1cnc2c(-c3cnc(C4CC4)nc3)cn(CC3(F)CCCCC3)c2c1 [P-0474, 4-[3-(2-cyclopropylpyrimidin-5-yl)-1-[(1-fluorocyclohexyl)methyl]pyrrolo[3,2-b]pyridin-6-yl]-3,5-dimethyl-isoxazole] | < 10000 | < 1 | – | < 1 |
| COC(=O)c1ccc(-n2cc(CC3CCC(F)(F)CC3)c3cc(-c4c(C)noc4C)cnc32)cc1 [P-0544, methyl 4-[3-[(4,4-difluorocyclohexyl)methyl]-5-(3,5-dimethylisoxazol-4-yl)pyrrolo[2,3-b]pyridin-1-yl]benzoate] | < 10000 | < 1 | – | 1 to 10 |
| Cc1noc(C)c1-c1cnc2c(-c3ccc(C(=O)OC(C)C)cc3)cn(CC3CCCCC3)c2c1 [P-0708, isopropyl 4-[1-(cyclohexylmethyl)-6-(3,5-dimethylisoxazol-4-yl)pyrrolo[3,2-b]pyridin-3-yl]benzoate] | < 10000 | < 1 | – | < 1 |
| Cc1noc(C)c1-c1cnc2c(-c3ccc(CO)cc3)cn(CC3CCC(F)(F)CC3)c2c1 [P-0601, [4-[1-[(4,4-difluorocyclohexyl)methyl]-6-(3,5-dimethylisoxazol-4-yl)pyrrolo[3,2-b]pyridin-3-yl]phenyl]methanol] | < 10000 | < 1 | – | < 1 |
| Cc1noc(C)c1-c1cnc2c(-c3ccc(C(=O)O)cc3)cn(CC3CC(F)(F)C3)c2c1 [P-0432, 4-[1-[(3,3-difluorocyclobutyl)methyl]-6-(3,5-dimethylisoxazol-4-yl)pyrrolo[3,2-b]pyridin-3-yl]benzoic acid] | < 10000 | < 1 | – | < 1 |
| CCNC(=O)Nc1ccc(-c2cn(CC3CCC(F)(F)CC3)c3cc(-c4c(C)noc4C)cnc23)cn1 [P-0584, 1-[5-[1-[(4,4-difluorocyclohexyl)methyl]-6-(3,5-dimethylisoxazol-4-yl)pyrrolo[3,2-b]pyridin-3-yl]-2-pyridyl]-3-ethyl-urea] | < 10000 | < 1 | – | < 1 |
| Cc1noc(C)c1-c1cnc2c(c1)c(Cc1ccccc1Cl)cn2-c1ccc(C(=O)O)cn1 [P-0428, 6-[3-[(2-chlorophenyl)methyl]-5-(3,5-dimethylisoxazol-4-yl)pyrrolo[2,3-b]pyridin-1-yl]pyridine-3-carboxylic acid] | < 10000 | < 1 | – | 1 to 10 |
| Cc1noc(C)c1-c1cnc2c(-c3cnn(C(F)F)c3)cn(C(CC#N)C3CCCC3)c2c1 (stereo not drawn) [P-0252, 3-cyclopentyl-3-[3-[1-(difluoromethyl)pyrazol-4-yl]-6-(3,5-dimethylisoxazol-4-yl)pyrrolo[3,2-b]pyridin-1-yl]propanenitrile] | < 10000 | < 1 | < 1 | – |
